Test results taken from patent publication US11465987B2, “Compounds for treatment of cancer” (ONCTERNAL THERAPEUTICS, INC., priority 2012, dated 2022).
Read-outs that look alike come from different tables or passages of the source.

Legend:
[1] = test system: B16-F1 mouse melanoma cell line; experiment: Cytotoxicity (SRB) assay, B16-F1; assay type: cell-based; details: read-out: IC50 ± SEM, B16-F1 (converted)
[2] = test system: A375 human melanoma cell line; experiment: Cytotoxicity (SRB) assay, A375; assay type: cell-based; details: read-out: IC50 ± SEM, A375 (converted)
[3] = test system: WM-164 human melanoma cell line; experiment: Cytotoxicity (SRB) assay, WM-164; assay type: cell-based; details: read-out: IC50 ± SEM, WM164 (converted)
[4] = test system: melanoma and prostate cancer cell lines; experiment: Antiproliferative activity summarised over the cell line panel (range or average); assay type: cell-based
[5] = test system: PC-3 human prostate cancer cell line; experiment: cells
Text: (§1) Cells were stained with SRB solution.

[6] = test system: PPC-1 human prostate cancer cell line; experiment: Cytotoxicity (SRB) assay, PPC-1; assay type: cell-based; details: read-out: IC50 ± SEM, PPC-1 (converted)
Text: as §1

[7] = test system: LNCaP human prostate cancer cell line; experiment: Cytotoxicity (SRB) assay, LNCaP; assay type: cell-based; details: read-out: IC50 ± SEM, LNCaP (converted)
Text: as §1

[8] = test system: DU 145 human prostate cancer cell line; experiment: Cytotoxicity (SRB) assay, DU 145; assay type: cell-based
Text: as §1

[9] = test system: MDA-MB-435/LCCMDR1 multidrug-resistant melanoma cells; experiment: Cytotoxicity (SRB) assay, MDA-MB-435/LCCMDR1; assay type: cell-based; details: Homo sapiens
[10] = test system: MDA-MB-435 parental nonresistant melanoma cells; experiment: Cytotoxicity (SRB) assay, MDA-MB-435; assay type: cell-based; details: Homo sapiens
[11] = test system: PC-3 xenograft; experiment: In vivo PC-3 prostate tumor xenograft; details: PC-3, 50 mg/kg i.p. daily; control 680 mm^3
[12] = Homo sapiens, read-out: IC50 ± SEM, PC-3, Table 12
[13] = read-out: IC50 (range over tested cell lines)
[14] = Table 14D, read-out: IC50 ± SEM, MDA-MB-435/LCC-6MDR1 (converted)
[15] = Table 14D, read-out: IC50 ± SEM, MDA-MB-435 (converted)
[16] = Homo sapiens, DU-145, Table 12, read-out: IC50 ± SEM, Du 145

COc1cc(C(=O)c2c[nH]c(-c3cc(OC)c(OC)c(OC)c3)n2)cc(OC)c1OC [12ea, (3,4,5-trimethoxyphenyl)(2-(3,4,5-trimethoxyphenyl)-1H-imidazol-4-yl)methanone]
IC50 ([1]; Mus musculus, B16-F1, Table 12): > 10000 nM | IC50 ([2]; Homo sapiens, A-375, Table 12): 4800 nM | IC50 ([3]; Homo sapiens, WM164, Table 12): > 10000 nM | IC50 ([4]; text on Tables 11-12, unit as printed, read-out: IC50 (average of all seven cell lines)): > 10000 nM

COc1cc(C(=O)c2c[nH]c(-c3ccc(Cl)cc3)n2)cc(OC)c1OC [12fa, (2-(4-chlorophenyl)-1H-imidazol-4-yl)(3,4,5-trimethoxyphenyl)methanone]
IC50 ([1]; Mus musculus, B16-F1, Table 12): 168 nM | IC50 ([2]; Homo sapiens, A-375, Table 12): 43 nM | IC50 [5, 12]: 35 nM | IC50 ([3]; Homo sapiens, WM164, Table 12): 26 nM | IC50 [4, 13]: 7.9 to 110 nM

COc1cc(C(=O)c2c[nH]c(-c3ccc(N(C)C)cc3)n2)cc(OC)c1OC [12ga, (2-(4-(dimethylamino)phenyl)-1H-imidazol-4-yl)(3,4,5-trimethoxyphenyl)methanone]
IC50 ([1]; Mus musculus, B16-F1, Table 12): 361 nM | IC50 ([2]; Homo sapiens, A-375, Table 12): 82 nM | IC50 [5, 12]: 92 nM | IC50 ([3]; Homo sapiens, WM164, Table 12): 80 nM | IC50 [4, 13]: 7.9 to 110 nM

COc1cc(C(=O)c2c[nH]c(-c3ccc(OCc4ccccc4)cc3)n2)cc(OC)c1OC [12ja, (2-(4-(benzyloxy)phenyl)-1H-imidazol-4-yl)(3,4,5-trimethoxyphenyl)methanone]
IC50 ([1]; Mus musculus, B16-F1, Table 12): 10000 nM | IC50 ([2]; Homo sapiens, A-375, Table 12): 5200 nM | IC50 [5, 12]: 10000 nM | IC50 ([3]; Homo sapiens, WM164, Table 12): 5500 nM

O=C(c1ccc(F)cc1)c1c[nH]c(-c2ccc(OCc3ccccc3)cc2)n1 [12jb, (2-(4-(benzyloxy)phenyl)-1H-imidazol-4-yl)(4-fluorophenyl)methanone]
IC50 ([1]; Mus musculus, B16-F1, Table 12): 117 ± 16 nM | IC50 ([2]; Homo sapiens, A-375, Table 12): 93 ± 8 nM | IC50 [5, 12]: 79 ± 0.4 nM | IC50 ([3]; Homo sapiens, WM164, Table 12): 90 ± 12 nM | increase in activity compared with 12kb ([4]; 12jb vs para-hydroxy compound 12kb): 440 fold

O=C(c1ccc(F)cc1)c1c[nH]c(-c2ccc(O)cc2)n1 [12kb]
IC50 ([1]; Table 12): > 10000 nM | IC50 ([2]; Table 12): 10000 nM | IC50 ([5]; read-out: IC50 ± SEM, PC-3, Table 12): > 10000 nM | IC50 ([6]; Table 12): > 10000 nM | IC50 ([3]; Table 12): > 10000 nM | IC50 ([7]; Table 12): 10000 nM | IC50 ([8]; Table 12, read-out: IC50 ± SEM, Du 145): > 10000 nM

COc1cc(C(=O)c2c[nH]c(-c3ccc(C(C)C)cc3)n2)cc(OC)c1OC [12v, (2-(4-isopropylphenyl)-1H-imidazol-4-yl)(3,4,5-trimethoxyphenyl)methanone]
IC50 [5, 12]: 136 nM | IC50 [9, 14]: 250 nM | IC50 ([6]; Homo sapiens, PPC-1, Table 12): 173 nM | IC50 [10, 15]: 312 nM | IC50 ([7]; Homo sapiens, LNCaP, Table 12): 171 nM | IC50 [8, 16]: 482 nM

COc1cc(C(=O)c2c[nH]c(-c3ccc(C(C)(C)C)cc3)n2)cc(OC)c1OC [12w, (2-(4-tert-butylphenyl)-1H-imidazol-4-yl)(3,4,5-trimethoxyphenyl)methanone]
IC50 [5, 12]: 436 nM | IC50 [9, 14]: 3070 nM | IC50 ([6]; Homo sapiens, PPC-1, Table 12): 294 nM | IC50 [10, 15]: 3690 nM | IC50 ([7]; Homo sapiens, LNCaP, Table 12): 423 nM | IC50 [8, 16]: 1700 nM

O=C(c1cc(O)c(O)c(O)c1)c1c[nH]c(-c2ccc(Cl)cc2)n1 [13fa, (2-(4-chlorophenyl)-1H-imidazol-4-yl)(3,4,5-trihydroxyphenyl)methanone]
IC50 ([1]; Mus musculus, B16-F1, Table 12): 1810 nM | IC50 ([2]; Homo sapiens, A-375, Table 12): 3900 nM | IC50 [5, 12]: 10000 nM | IC50 ([3]; Homo sapiens, WM164, Table 12): 2100 nM

COc1cc(Cc2nc(-c3ccccc3)c(-c3ccccc3)[nH]2)cc(OC)c1OC [102 e, 4,5-Diphenyl-2-(3,4,5-trimethoxybenzyl)-1H-imidazole]
IC50 ([9]; Table 14C, melanoma cells, read-out: IC50 ± SEM MDA-MB-435/LCC-6MDR1): > 50000 nM | IC50 ([10]; Table 14C, melanoma cells, read-out: IC50 ± SEM MDA-MB-435): > 50000 nM

COc1cc(C(=O)c2csc(-c3ccccc3)n2)cc(OC)c1OCCN1C(=O)c2ccccc2C1=O [compound 20]
IC50 ([1]; Mus musculus, B16-F1, Table 6A): 3100 nM | IC50 ([2]; Homo sapiens, A-375, Table 6A): 2300 nM | IC50 ([5]; Homo sapiens, read-out: IC50 ± SEM, PC-3, Table 6A): > 10000 nM | IC50 ([6]; Homo sapiens, PPC-1, Table 6A): 633 nM | IC50 ([3]; Homo sapiens, WM164, Table 6A): 1300 nM | IC50 ([7]; Homo sapiens, LNCaP, Table 6A): 1450 nM | IC50 ([8]; Homo sapiens, DU-145, Table 6A, read-out: IC50 ± SEM, DU 145): 642 nM

O=C(c1ccc2[nH]ccc2c1)c1csc(-c2cc3ccccc3[nH]2)n1 [compound 21, (2-(1H-indol-2-yl)thiazol-4-yl)(1H-indol-5-yl)methanone]
tumor volume at day 21 [11]: 331 mm^3
